According to patent US11931431B2, “PSMA-targeted radiopharmaceutical for diagnosing and treating prostate cancer” (FUTURECHEM CO., LTD, priority 2018, dated 2024):

What was measured:
[1] = Measurement of lipophilicity (log P), n-octanol/PBS; format: physicochemical; details: mean of 3
Procedure: Each of the [^68Ga]1 compounds (1˜2 mci) synthesized in Example 14 was transferred into a vial, and the solvent was removed, to which 1 mL of n-octanol and 1 mL of PBS were added, and the lid was well closed, followed by mixing with a vortex for 1 minute. After the layers were separated, 0.1 mL was taken from each layer and the radiation dose was measured. The radiation dose was measured by repeating 3 times, and the mean value was obtained.

PSMA^+ PC-3 PIP tumors = assay: MicroPET/CT imaging of mice transplanted with prostate cancer cell lines; format: in vivo, nude mouse
Procedure: A tumor model was prepared by subcutaneously injecting PSMA^+ PC-3 PIP cells (a human prostate cancer cell line) to the right side of the nude mouse hind leg. Each of the ^68Ga-labeled compounds [^68Ga]1e, [^68Ga]1g, [^68Ga]1h and [^68Ga]1k was intravenously injected with 5.5 to 6.5 MBq (148-175 μCi/200 μL), and PET/CT images were obtained using small animal INVEON PET/CT (Siemens medical solutions, Knoxville, USA) for 60 minutes. After 150 minutes, 270 minutes, and 390 minutes, PET/CT images were also obtained for 30 minutes. The obtained PET/CT image results were quantitatively analyzed using Inveon™ Research Workplace (IRW).
FIGS. 1, 2, 3, and 4 are graphs showing the quantitative analysis results of MicorPET/CT images for [^68Ga]1e, [^68Ga]1g, [^68Ga]1h, and [^68Ga]1k in % injected dose (ID)/g, and summarized in Tables 3, 4, 5, and 6, respectively.

SMILES: O=C(O)CCC(NC(=O)NC(CCCCN(CC(=O)O)C(=O)COCCOCCNC(=O)C(CCCCNC(=O)CCCc1ccc(I)cc1)NC(=O)CN1CCN2CCN3CCN(CC1)CC(=O)[O][68Ga]([O]C(=O)C2)[O]C(=O)C3)C(=O)O)C(=O)O (centres unmarked) [[^68Ga]1h]
- logP [1]: −1.89
- intake of mouse organ: Bladder (PSMA^+ PC-3 PIP tumors; 10 min after injection): 2.12 ± 0.39 % ID/g
- intake of mouse organ: Heart (PSMA^+ PC-3 PIP tumors; 10 min after injection): 24.69 ± 0.20 % ID/g
- intake of mouse organ: Kidney (PSMA^+ PC-3 PIP tumors; 10 min after injection): 13.26 ± 2.36 % ID/g
- intake of mouse organ: Liver (PSMA^+ PC-3 PIP tumors; 10 min after injection): 14.96 ± 0.03 % ID/g
- intake of mouse organ: Muscle (PSMA^+ PC-3 PIP tumors; 10 min after injection): 2.24 ± 0.15 % ID/g
- intake of mouse organ: Tumor (PIP) (PSMA^+ PC-3 PIP tumors; 10 min after injection): 1.94 ± 0.35 % ID/g
- intake of mouse organ: Bladder (PSMA^+ PC-3 PIP tumors; 20 min after injection): 2.91 ± 0.69 % ID/g
- intake of mouse organ: Heart (PSMA^+ PC-3 PIP tumors; 20 min after injection): 21.30 ± 0.11 % ID/g
- intake of mouse organ: Kidney (PSMA^+ PC-3 PIP tumors; 20 min after injection): 12.56 ± 0.86 % ID/g
- intake of mouse organ: Liver (PSMA^+ PC-3 PIP tumors; 20 min after injection): 12.71 ± 0.03 % ID/g
- intake of mouse organ: Muscle (PSMA^+ PC-3 PIP tumors; 20 min after injection): 2.97 ± 0.35 % ID/g
- intake of mouse organ: Tumor (PIP) (PSMA^+ PC-3 PIP tumors; 20 min after injection): 3.74 ± 0.97 % ID/g
- intake of mouse organ: Bladder (PSMA^+ PC-3 PIP tumors; 30 min after injection): 3.14 ± 0.51 % ID/g
- intake of mouse organ: Heart (PSMA^+ PC-3 PIP tumors; 30 min after injection): 17.38 ± 0.04 % ID/g
- intake of mouse organ: Kidney (PSMA^+ PC-3 PIP tumors; 30 min after injection): 12.61 ± 0.71 % ID/g
- intake of mouse organ: Liver (PSMA^+ PC-3 PIP tumors; 30 min after injection): 10.37 ± 0.12 % ID/g
- intake of mouse organ: Muscle (PSMA^+ PC-3 PIP tumors; 30 min after injection): 2.98 ± 0.34 % ID/g
- intake of mouse organ: Tumor (PIP) (PSMA^+ PC-3 PIP tumors; 30 min after injection): 5.00 ± 1.41 % ID/g
- intake of mouse organ: Bladder (PSMA^+ PC-3 PIP tumors; 40 min after injection): 4.52 ± 0.97 % ID/g
- intake of mouse organ: Heart (PSMA^+ PC-3 PIP tumors; 40 min after injection): 15.25 ± 0.15 % ID/g
- intake of mouse organ: Kidney (PSMA^+ PC-3 PIP tumors; 40 min after injection): 13.51 ± 0.46 % ID/g
- intake of mouse organ: Liver (PSMA^+ PC-3 PIP tumors; 40 min after injection): 8.86 ± 0.35 % ID/g
- intake of mouse organ: Muscle (PSMA^+ PC-3 PIP tumors; 40 min after injection): 3.28 ± 0.23 % ID/g
- intake of mouse organ: Tumor (PIP) (PSMA^+ PC-3 PIP tumors; 40 min after injection): 6.22 ± 1.75 % ID/g
- intake of mouse organ: Bladder (PSMA^+ PC-3 PIP tumors; 50 min after injection): 8.26 ± 4.41 % ID/g
- intake of mouse organ: Heart (PSMA^+ PC-3 PIP tumors; 50 min after injection): 13.52 ± 0.55 % ID/g
- intake of mouse organ: Kidney (PSMA^+ PC-3 PIP tumors; 50 min after injection): 13.44 ± 0.71 % ID/g
- intake of mouse organ: Liver (PSMA^+ PC-3 PIP tumors; 50 min after injection): 7.83 ± 0.45 % ID/g
- intake of mouse organ: Muscle (PSMA^+ PC-3 PIP tumors; 50 min after injection): 3.25 ± 0.36 % ID/g
- intake of mouse organ: Tumor (PIP) (PSMA^+ PC-3 PIP tumors; 50 min after injection): 7.12 ± 2.07 % ID/g
- intake of mouse organ: Bladder (PSMA^+ PC-3 PIP tumors; 60 min after injection): 12.62 ± 5.31 % ID/g
- intake of mouse organ: Heart (PSMA^+ PC-3 PIP tumors; 60 min after injection): 12.14 ± 0.91 % ID/g
- intake of mouse organ: Kidney (PSMA^+ PC-3 PIP tumors; 60 min after injection): 13.60 ± 1.72 % ID/g
- intake of mouse organ: Liver (PSMA^+ PC-3 PIP tumors; 60 min after injection): 7.19 ± 0.49 % ID/g
- intake of mouse organ: Muscle (PSMA^+ PC-3 PIP tumors; 60 min after injection): 3.14 ± 0.20 % ID/g
- intake of mouse organ: Tumor (PIP) (PSMA^+ PC-3 PIP tumors; 60 min after injection): 7.90 ± 2.46 % ID/g
- intake of mouse organ: Bladder (PSMA^+ PC-3 PIP tumors; 150 min after injection): 19.45 ± 12.23 % ID/g
- intake of mouse organ: Heart (PSMA^+ PC-3 PIP tumors; 150 min after injection): 5.55 ± 2.19 % ID/g
- intake of mouse organ: Kidney (PSMA^+ PC-3 PIP tumors; 150 min after injection): 6.40 ± 1.41 % ID/g
- intake of mouse organ: Liver (PSMA^+ PC-3 PIP tumors; 150 min after injection): 2.80 ± 0.99 % ID/g
- intake of mouse organ: Muscle (PSMA^+ PC-3 PIP tumors; 150 min after injection): 1.70 ± 0.57 % ID/g
- intake of mouse organ: Tumor (PIP) (PSMA^+ PC-3 PIP tumors; 150 min after injection): 9.90 ± 4.53 % ID/g
- intake of mouse organ: Bladder (PSMA^+ PC-3 PIP tumors; 270 min after injection): 15.90 ± 4.53 % ID/g
- intake of mouse organ: Heart (PSMA^+ PC-3 PIP tumors; 270 min after injection): 5.75 ± 0.21 % ID/g
- intake of mouse organ: Kidney (PSMA^+ PC-3 PIP tumors; 270 min after injection): 7.45 ± 1.63 % ID/g
- intake of mouse organ: Liver (PSMA^+ PC-3 PIP tumors; 270 min after injection): 3.00 ± 0.28 % ID/g
- intake of mouse organ: Muscle (PSMA^+ PC-3 PIP tumors; 270 min after injection): 1.70 ± 0.14 % ID/g
- intake of mouse organ: Tumor (PIP) (PSMA^+ PC-3 PIP tumors; 270 min after injection): 14.20 ± 0.00 % ID/g
- intake of mouse organ: Bladder (PSMA^+ PC-3 PIP tumors; 390 min after injection): 22.80 ± 9.90 % ID/g
- intake of mouse organ: Heart (PSMA^+ PC-3 PIP tumors; 390 min after injection): 3.90 ± 0.42 % ID/g
- intake of mouse organ: Kidney (PSMA^+ PC-3 PIP tumors; 390 min after injection): 5.85 ± 0.92 % ID/g
- intake of mouse organ: Liver (PSMA^+ PC-3 PIP tumors; 390 min after injection): 2.35 ± 0.07 % ID/g
- intake of mouse organ: Muscle (PSMA^+ PC-3 PIP tumors; 390 min after injection): 1.30 ± 0.14 % ID/g
- intake of mouse organ: Tumor (PIP) (PSMA^+ PC-3 PIP tumors; 390 min after injection): 16.75±0.92 % ID/g
- excretion, in words (PSMA^+ PC-3 PIP tumors; MicroPET/CT): rapidly excreted out of the body
- residence time in the blood, in words (PSMA^+ PC-3 PIP tumors; MicroPET/CT): residence time in the blood was increased
- tumor intake over time, in words (PSMA^+ PC-3 PIP tumors; MicroPET/CT): tumor intake continued to increase after 390 minutes

SMILES: O=C(O)CC[C@H](NC(=O)N[C@@H](CCC(=O)N(CCOCCOCCNC(=O)CN1CCN2CCN3CCN(CC1)CC(=O)[O][68Ga]([O]C(=O)C2)[O]C(=O)C3)CC(=O)O)C(=O)O)C(=O)O [[^68Ga]1n]
- logP [1]: −3.06
